Some test systems named below: SNB-75; SNB-19; COLO 205; SF-295; KM12; SW-620; SK-MEL-2; 786-0; KM-20L2; CCRF-CEM; HCT-15; OVCAR-4; MOLT-4; SF-268; TK-10; A498; NCI-H226; MDA-N; Hs-578T; PC-3.
Holding throughout (assay): DTP human tumour cell line panel, 48 h

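All cell lines were grown in 96-well plates and treated with compound for 48 hours. At the GI50, growth is halved.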 Calls of active or inactive are those of the source. No stated cut-off is given here; in the data, active = GI50 up to about 1.1 µM and inactive = higher.

As usually defined, the GI50 is the concentration that inhibits growth by half. `O=S(O)CCCSSCCCCSSCCCS(=O)O`: the GI50 was 66.8 µM (inactive) in the test on SNB-75; > 100 µM (inactive) in the test on SNB-19; > 100 µM (inactive) in the test on COLO 205; > 100 µM (inactive) with SF-295; > 100 µM (inactive) with KM12; > 100 µM (inactive) with SW-620. Besides, the GI50 was > 100 µM (inactive) in the test on SK-MEL-2; > 100 µM (inactive) with 786-0; > 100 µM (inactive) with KM-20L2; > 100 µM (inactive) in the test with CCRF-CEM; > 100 µM in the test with HCT-15; > 100 µM (inactive) in the test on OVCAR-4. Moreover, the GI50 in the test on MOLT-4 is 26.7 µM (inactive); in the test with SF-268, > 100 µM (inactive); in the test on TK-10, > 100 µM (inactive); with A498, > 100 µM (inactive).
Regarding `CCOc1ccc(N2C(=O)C3c4[nH]c5ccccc5c4C4CCC(C(C)(C)C)CC4C3C2=O)cc1` (stereo not given), the GI50 with SNB-75 is > 100 µM (inactive); with SNB-19 it was > 100 µM (inactive); in the test with COLO 205, 36.1 µM (inactive); with SF-295, > 100 µM (inactive); with SW-620, > 100 µM (inactive); with NCI-H226, 56.5 µM (inactive). In addition, the GI50 in the test on 786-0 was 50.6 µM (inactive); with KM-20L2, 77.8 µM (inactive); in the test with CCRF-CEM, 10.3 µM (inactive); in the test on HCT-15 it was > 100 µM; in the test on OVCAR-4, > 100 µM (inactive); in the test on MOLT-4, > 100 µM (inactive). Moreover, the GI50 in the test with SF-268 and in the test with A498 was > 100 µM (inactive) in each case.
For the molecule `C=CCC1(C)CCCCC1(O)C[S+]([O-])c1ccccc1` (stereo not given), the GI50 in the test with SNB-75, with SNB-19, in the test on COLO 205, in the test on SF-295, with KM12 and with SW-620 was > 100 µM (inactive) each time. Besides, the GI50 in the test with NCI-H226 is 20.9 µM (inactive); in the test on 786-0 it was > 100 µM (inactive); in the test with KM-20L2 it was > 100 µM (inactive); in the test on CCRF-CEM, > 100 µM (inactive); in the test with HCT-15 it was > 100 µM; in the test with OVCAR-4, > 100 µM (inactive). The GI50 with MOLT-4, in the test on SF-268, in the test on TK-10 and in the test with A498 was > 100 µM (inactive) throughout.
As to `C=C1C(=O)OC2(C)C3CCC(C3)C12` (stereo not given), the GI50 was 47.1 µM (inactive) in the test on SNB-75; > 100 µM (inactive) in the test with SNB-19; 23.1 µM (inactive) with COLO 205; > 100 µM (inactive) with SF-295; 43.4 µM (inactive) with KM12; 47.2 µM (inactive) in the test on SW-620. Moreover, the GI50 in the test on SK-MEL-2 is 39.4 µM (inactive); in the test with NCI-H226, > 100 µM (inactive); with 786-0 it was 47.9 µM (inactive); with KM-20L2, 45.1 µM (inactive); in the test on CCRF-CEM it was 24.8 µM (inactive); with HCT-15, 60.7 µM. Further, the GI50 in the test with OVCAR-4 was 54.5 µM (inactive); in the test with MOLT-4, 34 µM (inactive); in the test with SF-268, 69.2 µM (inactive); in the test with TK-10 it was 36.3 µM (inactive).
On to `O=C1C[C@@H]2C(COC(=O)c3ccccc3)N(OCc3ccccc3)C[C@@H]2O1` (stereo not given in full), for which the GI50 with SNB-75, in the test with SNB-19, in the test with COLO 205, in the test with KM12, in the test with SW-620 and with SK-MEL-2 was > 100 µM (inactive) throughout. Also, the GI50 in the test with NCI-H226 is > 100 µM (inactive); in the test on 786-0, > 100 µM (inactive); in the test with KM-20L2, > 100 µM (inactive); with CCRF-CEM, > 100 µM (inactive); in the test with HCT-15, > 100 µM; in the test on OVCAR-4 it was > 100 µM (inactive). The GI50 with MOLT-4, in the test on SF-268, in the test on TK-10 and with A498 was > 100 µM (inactive) in each case.
Take `COc1ccccc1-c1cc(=O)c2ccccc2[nH]1`: the GI50 with SNB-75 is 55.7 µM (inactive); with SNB-19, > 100 µM (inactive); in the test with COLO 205 it was > 100 µM (inactive); in the test with SF-295, 40 µM (inactive); in the test on KM12, 63.7 µM (inactive); with SW-620 it was 40.4 µM (inactive). The GI50 in the test on NCI-H226 is 70.1 µM (inactive); with 786-0, > 100 µM (inactive); in the test with KM-20L2, > 100 µM (inactive); in the test with CCRF-CEM, 66.7 µM (inactive); with HCT-15, 55.1 µM; with MOLT-4, 52 µM (inactive). Moreover, the GI50 in the test with SF-268 and with TK-10 was > 100 µM (inactive) throughout.
In the case of `O=C(N/N=C1/C(=O)N(c2ccc(Cl)cc2Cl)C(=O)C(=O)C1c1nc2ccccc2o1)c1ccccc1O` (stereo not given), the GI50 in the test with SNB-75 was 43.3 µM (inactive); in the test with SNB-19, 49.7 µM (inactive); in the test with COLO 205, 52.7 µM (inactive); in the test on KM12, 42.4 µM (inactive); in the test on SW-620, 47.9 µM (inactive); in the test on SK-MEL-2, 41.3 µM (inactive). Further, the GI50 in the test on NCI-H226 was > 100 µM (inactive); in the test with 786-0 it was 51.6 µM (inactive); in the test with KM-20L2 it was > 100 µM (inactive); in the test with CCRF-CEM it was 47.6 µM (inactive); in the test on HCT-15 it was 37.8 µM; in the test with MOLT-4, 34.7 µM (inactive). The GI50 was 41.2 µM (inactive) in the test on SF-268, 38.9 µM (inactive) in the test with TK-10 and 31.3 µM (inactive) with A498.
Take `COc1cc(O)c(C(=O)CC(C)=O)c(OC)c1`: the GI50 in the test on SNB-75 was 76.4 µM (inactive); in the test with SNB-19 it was > 100 µM (inactive); in the test with COLO 205, > 100 µM (inactive); in the test on SF-295 it was > 100 µM (inactive); in the test on KM12, > 100 µM (inactive); in the test on SW-620, > 100 µM (inactive). Besides, the GI50 in the test with SK-MEL-2, in the test on NCI-H226, in the test with 786-0, in the test with KM-20L2, with CCRF-CEM and with OVCAR-4 was > 100 µM (inactive) each time. The GI50 with MOLT-4, with SF-268 and in the test with TK-10 was > 100 µM (inactive) throughout.
`N#CCCN(CCC#N)c1ccc(/C=N\c2nc(-c3ccccc3)cs2)cc1`: the GI50 was 29.8 µM (inactive) in the test on SNB-75; > 100 µM (inactive) in the test on SNB-19; > 100 µM (inactive) in the test with COLO 205; 45.7 µM (inactive) with SF-295; > 100 µM (inactive) with SW-620; > 100 µM (inactive) with SK-MEL-2. Also, the GI50 with NCI-H226 was > 100 µM (inactive); in the test on 786-0, > 100 µM (inactive); in the test on KM-20L2 it was > 100 µM (inactive); with HCT-15 it was > 100 µM; in the test with OVCAR-4, 63.4 µM (inactive); with MOLT-4, > 100 µM (inactive). Also, the results for the GI50 in the test with SF-268, with TK-10 and with A498 were > 100 µM (inactive), 81.7 µM (inactive) and > 100 µM (inactive), respectively.
In the case of `COc1cc2ccnc3c2c(c1O)N(C)C=C3`, the GI50 with SNB-75 is 21.5 µM (inactive); in the test on MDA-N, 3.91 µM (inactive); in the test on SNB-19 it was 25.5 µM (inactive); in the test on COLO 205, 20.7 µM (inactive); with SF-295 it was 7.78 µM (inactive); in the test on KM12 it was 19.4 µM (inactive). The GI50 was 18.7 µM (inactive) in the test with Hs-578T; 12 µM (inactive) in the test with SW-620; 17.7 µM (inactive) in the test with SK-MEL-2; 18 µM (inactive) in the test on NCI-H226; 7.19 µM (inactive) in the test on 786-0; 13.8 µM (inactive) in the test on PC-3. In addition, the GI50 in the test with CCRF-CEM was 3.88 µM (inactive); in the test on HCT-15 it was 15 µM; with OVCAR-4 it was 16 µM (inactive); in the test with MOLT-4, 4.26 µM (inactive); in the test with SF-268, 17.7 µM (inactive); in the test on TK-10, 16.2 µM (inactive). Besides, in the test on A498, the GI50 is 15.9 µM (inactive).
As for `O=[N+]([O-])c1cccc(Nc2nc(Cl)nc(Cl)n2)c1`, the GI50 in the test on SNB-75, with SNB-19, in the test with COLO 205, with SF-295, in the test on KM12 and in the test with SW-620 was > 100 µM (inactive) each time. Further, the GI50 in the test with SK-MEL-2 was > 100 µM (inactive); in the test with NCI-H226, > 100 µM (inactive); in the test on 786-0 it was > 100 µM (inactive); in the test on KM-20L2, > 100 µM (inactive); in the test with CCRF-CEM, > 100 µM (inactive); with HCT-15, > 100 µM. The GI50 in the test on OVCAR-4 is 34.4 µM (inactive); with MOLT-4 it was > 100 µM (inactive); with SF-268, > 100 µM (inactive).
Consider `O=S(=O)(O)SC/C=C\CSS(=O)(=O)O`, for which the GI50 in the test on SNB-75, in the test on SNB-19, in the test on COLO 205, with SF-295, with KM12 and with SW-620 was > 100 µM (inactive) each time. Moreover, the GI50 was > 100 µM (inactive) in the test with NCI-H226; > 100 µM (inactive) in the test on 786-0; > 100 µM (inactive) in the test on KM-20L2; 65.8 µM in the test on HCT-15; > 100 µM (inactive) with OVCAR-4; 35.8 µM (inactive) in the test with MOLT-4. Moreover, the GI50 in the test on SF-268, in the test on TK-10 and in the test with A498 was > 100 µM (inactive) in each case.
On to `Cn1c(=O)nc2n(CCO)c(-c3ccccc3)c(-c3ccccc3)nc-2c1=O`, for which the GI50 in the test with SNB-75, with MDA-N, in the test with SNB-19, with COLO 205, with SF-295 and in the test on KM12 was > 100 µM (inactive) each time. In addition, the GI50 in the test with Hs-578T is 86.3 µM (inactive); with SW-620, > 100 µM (inactive); in the test on SK-MEL-2 it was > 100 µM (inactive); with NCI-H226 it was > 100 µM (inactive); in the test on 786-0, > 100 µM (inactive); in the test on PC-3 it was > 100 µM (inactive). Further, the GI50 in the test with CCRF-CEM was > 100 µM (inactive); in the test with HCT-15 it was > 100 µM; with OVCAR-4, > 100 µM (inactive); with MOLT-4 it was > 100 µM (inactive); in the test with SF-268, > 100 µM (inactive); in the test on TK-10, > 100 µM (inactive). Besides, in the test with A498, the GI50 is > 100 µM (inactive).

These data come from ChEMBL document CHEMBL1201862, “PubChem BioAssay data set” (2004).
